Values belong to the compound of their own block, whether it stands above or below them.
Legend:
prostate cancer cells = experiment: Glucocorticoid metabolism with apalutamide treatment; assay type: cell-based, human; details: similar to enzalutamide
H6PD protein = H6PD protein immunoblot in enz-treated cell lines; assay type: cell-based, human; details: in vitro, LAPC4, VCaP and MDA-Pca-2b; transcript not increased
H6PD [1] = experiment: H6PD protein in prostate cancer patient tissues; parameters: species or system human; details: men with prostate cancer treated with enz and prostate tissues treated ex vivo; compared with pre-treatment
[2] = test system: H6PD activity in LAPC4 cells; experiment: Endoplasmic reticulum / microsomal NADPH in LAPC4 cells
H6PD [3] = target: T1, H6PD (Homo sapiens, UniProt O95479); experiment: Surface plasmon resonance; assay type: binding; details: SPR; Fig. 4A and fig. S9
T1 sequence (O95479 20-791): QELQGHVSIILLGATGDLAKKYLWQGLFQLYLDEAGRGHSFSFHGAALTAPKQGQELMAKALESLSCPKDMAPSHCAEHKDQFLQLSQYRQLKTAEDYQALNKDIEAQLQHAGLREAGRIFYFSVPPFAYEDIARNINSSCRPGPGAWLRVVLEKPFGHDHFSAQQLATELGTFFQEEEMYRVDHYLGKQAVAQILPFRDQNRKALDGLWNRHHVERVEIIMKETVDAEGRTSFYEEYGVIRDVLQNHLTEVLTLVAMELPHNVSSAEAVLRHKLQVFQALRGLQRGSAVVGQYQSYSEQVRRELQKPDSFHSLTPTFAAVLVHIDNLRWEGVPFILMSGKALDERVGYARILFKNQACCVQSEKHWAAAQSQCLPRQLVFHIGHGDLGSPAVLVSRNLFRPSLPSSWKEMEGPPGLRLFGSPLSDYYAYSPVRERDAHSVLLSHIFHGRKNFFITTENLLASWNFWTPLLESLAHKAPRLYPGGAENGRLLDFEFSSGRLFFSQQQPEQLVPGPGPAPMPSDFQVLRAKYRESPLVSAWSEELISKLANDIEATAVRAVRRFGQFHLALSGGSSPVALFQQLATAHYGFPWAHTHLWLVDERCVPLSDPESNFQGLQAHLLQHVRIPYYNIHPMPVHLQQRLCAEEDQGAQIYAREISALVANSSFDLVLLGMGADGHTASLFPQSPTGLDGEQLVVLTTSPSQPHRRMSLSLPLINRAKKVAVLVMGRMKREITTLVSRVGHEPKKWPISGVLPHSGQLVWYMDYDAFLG

H6PD [4] = target: T1, H6PD; experiment: In vitro H6PD activity assay; assay type: biochemical; details: for inhibition of H6PD activity: fig. S10
G6PD = G6PD (Homo sapiens, UniProt P11413); experiment: G6PD activity assay; assay type: biochemical; details: fig. S10
Sequence of G6PD (P11413 whole entry): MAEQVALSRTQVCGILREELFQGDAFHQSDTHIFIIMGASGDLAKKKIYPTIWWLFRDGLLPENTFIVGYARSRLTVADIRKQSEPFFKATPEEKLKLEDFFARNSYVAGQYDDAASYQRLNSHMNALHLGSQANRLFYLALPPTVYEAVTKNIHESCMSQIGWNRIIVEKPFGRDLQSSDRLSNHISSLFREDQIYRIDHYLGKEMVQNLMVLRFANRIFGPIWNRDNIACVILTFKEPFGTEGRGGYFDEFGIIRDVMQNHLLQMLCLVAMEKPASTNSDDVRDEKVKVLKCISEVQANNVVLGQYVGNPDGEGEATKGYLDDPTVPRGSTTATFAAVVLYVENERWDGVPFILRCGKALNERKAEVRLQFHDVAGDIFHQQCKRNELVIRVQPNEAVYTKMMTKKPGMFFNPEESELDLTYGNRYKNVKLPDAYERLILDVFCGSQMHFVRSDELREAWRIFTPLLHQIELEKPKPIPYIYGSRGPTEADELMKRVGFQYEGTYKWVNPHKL

H6PD [5] = target: T1, H6PD; experiment: H6PD IC50 assay; assay type: biochemical; details: for loss of H6PD inhibitory potency: relative to rucaparib
PARP-1 = details: cited from earlier work
[6] = test system: enz-resistant LAPC4 cells; experiment: Cell viability assay; assay type: cell-based, human; details: 100 nM cortisol with 10 μM enz, 5 days; Fig 4E
H6PD [7] = details: of four PARP inhibitors; cited from earlier work

SMILES: CNC(=O)c1ccc(N2C(=S)N(c3cnc(C#N)c(C(F)(F)F)c3)C(=O)C23CCC3)cc1F [apalutamide]
- changes in glucocorticoid metabolism (prostate cancer cells): induces similar changes in glucocorticoid metabolism

SMILES: CNC(=O)c1ccc(N2C(=S)N(c3ccc(C#N)c(C(F)(F)F)c3)C(=O)C2(C)C)cc1F [enzalutamide]
- H6PD protein (H6PD protein): increased
- H6PD in patient tissues post-treatment (H6PD [1]): increase in H6PD was also detectable
- increase in NADPH generation in the endoplasmic reticulum ([2]; LAPC4 cells, continuous enz treatment, p<0.0001): > 2 fold

SMILES: CNCc1ccc(-c2[nH]c3cccc4c3c2CCNC4=O)cc1 [Compound 2]
- loss of H6PD inhibitory potency (H6PD [5]): greater than 20 x

Further lines, with some results ahead:

- inhibition of H6PD activity (H6PD [4]): but not olaparib inhibited H6PD activity
- inhibition of G6PD activity (G6PD): neither inhibited G6PD activity
SMILES: O=C(c1cc(Cc2n[nH]c(=O)c3ccccc23)ccc1F)N1CCN(C(=O)C2CC2)CC1 [olaparib]
- binding to H6PD (H6PD [3]): but not olaparib (another PARP inhibitor) specifically bound H6PD

- loss of H6PD inhibitory potency (H6PD [5]): ~ 10 x
SMILES: CNCc1ccc(-c2[nH]c3cc(F)cc4c3c2CCN(C)C4=O)cc1 [Compound 4]

- IC50 (H6PD [5]; read-out: H6PD IC50): 27 µM
SMILES: O=C1NCCc2c(-c3ccc(CO)cc3)[nH]c3cc(F)cc1c23 [Compound 5]
- PARP inhibition activity (PARP-1): poor PARP inhibition activity

- binding to H6PD (H6PD [3]): specifically bound H6PD
- inhibition of H6PD activity (H6PD [4]): inhibited H6PD activity
- inhibition of H6PD activity (H6PD [4]; listed as Rucaparib): modest H6PD inhibitor
- inhibition of G6PD activity (G6PD): neither inhibited G6PD activity
SMILES: CNCc1ccc(-c2[nH]c3cc(F)cc4c3c2CCNC4=O)cc1 [rucaparib]
- H6PD generation of NADPH in vitro (H6PD [4]; H6PD protein, D-glucosamine 6-phosphate and NADP, 1 hour, Fig 4B): inhibited H6PD generation of NADPH in vitro
- cell viability [6]: limited cell viability in vitro
- off-target H6PD inhibition (H6PD [7]): off-target H6PD inhibition was specifically identified only with rucaparib
- H6PD generation of NADPH in enz-resistant prostate cancer ([2]; enz-resistant LAPC4 cells, 24 hours, microsomal NADPH, Fig 4C): inhibited H6PD generation of NADPH
